Source: patent US8431556B2, “C-21-keto lupane derivatives preparation and use thereof” (Vertex Pharmaceuticals Incorporated, priority 2008, dated 2013)

What follows are compounds tested on HIV-1 (HIVIIIB) (assay: HIV-1 replication in MT2 cell line with and without 30% human serum (viral RT activity in supernatant)). Conditions: Human immunodeficiency virus 1, MT2, MT-2 cells, with 30% human serum, average IC50 if tested more than once, read-out: MT-2 (HIVIIIB) with 30% HS IC50 range.
Format: cell-based
How it was run: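 MT2 cells infected with HIVIIIB at MOI 0.5 for 3 h, washed, then cultured with serially diluted compound in RPMI/10% FBS, with or without 30% human serum, at 37° C. Compound-containing medium refreshed at day 3. Replication measured as supernatant RT activity at day 5; IC50 and IC90 from curve fits.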

Compound	IC50 [nM]
CC(C)NC(=O)NCCNC(=O)[C@@]12CC[C@]3(C)[C@H](CC[C@@H]4[C@@]5(C)CC[C@H](OC(=O)CC(C)(C)C(=O)O)C(C)(C)[C@@H]5CC[C@]43C)C1=C(C(C)C)C(=O)C2 [9-23, 3β-O-(3′,3′-Dimethylsuccinyl)-21-oxolup-18-en-28-oic acid N-[2-(3-isopropyl-ureido)-ethyl]-acetamide]	< 199
CC(C)C1=C2[C@H]3CC[C@@H]4[C@@]5(C)CC[C@H](OC(=O)CC(C)(C)C(=O)O)C(C)(C)[C@@H]5CC[C@@]4(C)[C@]3(C)CC[C@@]2(C(=O)N2CCOCC2)CC1=O [9-7, 3β-O-(3′,3′-Dimethylsuccinyl)-21-oxolup-18-en-28-oic acid N-morpholyl acetamide]	< 199
CC(C)C1=C2[C@H]3CC[C@@H]4[C@@]5(C)CC[C@H](OC(=O)CC(C)(C)C(=O)O)C(C)(C)[C@@H]5CC[C@@]4(C)[C@]3(C)CC[C@@]2(C(=O)Nc2nnnn2C)CC1=O [9-66, 3β-O-(3′,3′-Dimethylsuccinyl)-21-oxolup-18-en-28-oic acid N-(1-methyl-1H-tetrazol-5-yl)-acetamide]	200 to 999
Cc1ccccc1NC(=O)[C@@]12CC[C@]3(C)[C@H](CC[C@@H]4[C@@]5(C)CC[C@H](OC(=O)CC(C)(C)C(=O)O)C(C)(C)[C@@H]5CC[C@]43C)C1=C(C(C)C)C(=O)C2 [9-47, 3β-O-(3′,3′-Dimethylsuccinyl)-21-oxolup-18-en-28-oic acid N-2-methyl-phen-1-yl acetamide]	< 199
CC(C)C1=C2C3CCC4[C@@]5(C)CC[C@H](OC(=O)CC(C)(C)C(=O)O)C(C)(C)C5CC[C@@]4(C)[C@]3(C)CC[C@@]2(C(=O)NCC2CCC(F)(F)CC2)CC1=O (stereo partly drawn) [9-93, 3β-O-(3′,3′-Dimethylsuccinyl)-21-oxolup-18-en-28-oic acid N-(4,4-difluoro-cyclohexylmethyl)-acetamide]	< 199
CC(=O)N1CC2CCC(C1)N2C(=O)[C@@]12CC[C@]3(C)C(CCC4[C@@]5(C)CC[C@H](OC(=O)CC(C)(C)C(=O)O)C(C)(C)C5CC[C@]43C)C1=C(C(C)C)C(=O)C2 (stereo partly drawn) [9-95, 3β-O-(3′,3′-Dimethylsuccinyl)-21-oxolup-18-en-28-oic acid N-8-acetylamino-3,8-diaza-bicyclo[3.2.1]octane-3-acetamide]	< 199
CC(C)C1=C2C3CCC4[C@@]5(C)CC[C@H](OC(=O)CC(C)(C)C(=O)O)C(C)(C)C5CC[C@@]4(C)[C@]3(C)CC[C@@]2(C(=O)NC[C@@H]2CCCN2C)CC1=O (stereo partly drawn) [9-84, 3β-O-(3′,3′-Dimethylsuccinyl)-21-oxolup-18-en-28-oic acid N-((S)-1-methyl-pyrrolidin-2-ylmethyl)-acetamide]	< 199
CC(C)C1=C2[C@H]3CC[C@@H]4[C@@]5(C)CC[C@H](OC(=O)CC(C)(C)C(=O)O)C(C)(C)[C@@H]5CC[C@@]4(C)[C@]3(C)CC[C@@]2(C(=O)N2CCC(N(C)C)CC2)CC1=O [9-74, 3β-O-(3′,3′-Dimethylsuccinyl)-21-oxolup-18-en-28-oic acid N-(4-dimethylamino-piperidin-1-yl)-acetamide]	< 199
CC(C)C1=C2[C@H]3CC[C@@H]4[C@@]5(C)CC[C@H](OC(=O)CC(C)(C)C(=O)O)C(C)(C)[C@@H]5CC[C@@]4(C)[C@]3(C)CC[C@@]2(C(=O)NCC2CC2)CC1=O [9-69, 3β-O-(3′,3′-Dimethylsuccinyl)-21-oxolup-18-en-28-oic acid N-cyclopropylmethyl acetamide]	< 199
CC(C)C1=C2[C@H]3CC[C@@H]4[C@@]5(C)CC[C@H](OC(=O)CC(C)(C)C(=O)O)C(C)(C)[C@@H]5CC[C@@]4(C)[C@]3(C)CC[C@@]2(C(=O)NCCN2CCCC2)CC1=O [9-61, 3β-O-(3′,3′-Dimethylsuccinyl)-21-oxolup-18-en-28-oic acid N-(2-pyrrolidin-1-yl-ethyl)-acetamide]	< 199
CC(C)C1=C2[C@H]3CC[C@@H]4[C@@]5(C)CC[C@H](OC(=O)CC(C)(C)C(=O)O)C(C)(C)[C@@H]5CC[C@@]4(C)[C@]3(C)CC[C@@]2(C(=O)Nc2cncc3ccccc23)CC1=O [9-63, 3β-O-(3′,3′-Dimethylsuccinyl)-21-oxolup-18-en-28-oic acid N-isoquinolin-4-yl-acetamide]	< 199
CC(C)C1=C2[C@H]3CC[C@@H]4[C@@]5(C)CC[C@H](OC(=O)CC(C)(C)C(=O)O)C(C)(C)[C@@H]5CC[C@@]4(C)[C@]3(C)CC[C@@]2(C(=O)NC(C)(C)C2CC2)CC1=O [9-73, 3β-O-(3′,3′-Dimethylsuccinyl)-21-oxolup-18-en-28-oic acid N-(1-cyclopropyl-1-methyl-ethyl)-acetamide]	< 199
CC(C)C1=C2[C@H]3CC[C@@H]4[C@@]5(C)CC[C@H](OC(=O)CC(C)(C)C(=O)O)C(C)(C)[C@@H]5CC[C@@]4(C)[C@]3(C)CC[C@@]2(C(=O)NC(C)c2ccccc2)CC1=O (stereo partly drawn) [9-33, 3β-O-(3′,3′-Dimethylsuccinyl)-21-oxolup-18-en-28-oic acid N-(1-phenyl-ethyl)-acetamide]	< 199
CC(C)C1=C2[C@H]3CC[C@@H]4[C@@]5(C)CC[C@H](OC(=O)CC(C)(C)C(=O)O)C(C)(C)[C@@H]5CC[C@@]4(C)[C@]3(C)CC[C@@]2(C(=O)Nc2cncnc2)CC1=O [9-51, 3β-O-(3′,3′-Dimethylsuccinyl)-21-oxolup-18-en-28-oic acid N-pyrimidin-5-yl-acetamide]	< 199
CC(=O)N1CCC(NC(=O)[C@@]23CC[C@]4(C)[C@H](CC[C@@H]5[C@@]6(C)CC[C@H](OC(=O)CC(C)(C)C(=O)O)C(C)(C)[C@@H]6CC[C@]54C)C2=C(C(C)C)C(=O)C3)CC1 [9-32, 3β-O-(3′,3′-Dimethylsuccinyl)-21-oxolup-18-en-28-oic acid N-(4-amino-N-1-acetyl-piperidine)-acetamide]	< 199
Cc1cc(NC(=O)[C@@]23CC[C@]4(C)C(CCC5[C@@]6(C)CC[C@H](OC(=O)CC(C)(C)C(=O)O)C(C)(C)C6CC[C@]54C)C2=C(C(C)C)C(=O)C3)no1 (stereo partly drawn) [9-91, 3β-O-(3′,3′-Dimethylsuccinyl)-21-oxolup-18-en-28-oic acid N-(5-methyl-isoxazol-3-yl)-acetamide]	< 199

Same assay, conditions: Human immunodeficiency virus 1, MT2, MT-2 cells, without HS, average IC50 if tested more than once, read-out: MT-2 (HIVIIIB) IC50 range

Compound	IC50 [nM]
COc1ccc(CCNC(=O)[C@@]23CC[C@]4(C)[C@H](CC[C@@H]5[C@@]6(C)CC[C@H](OC(=O)CC(C)(C)C(=O)O)C(C)(C)[C@@H]6CC[C@]54C)C2=C(C(C)C)C(=O)C3)cc1 [9-19, 3β-O-(3′,3′-Dimethylsuccinyl)-21-oxolup-18-en-28-oic acid N-[2-(4-methoxy-phenyl)-ethyl]-acetamide]	< 199
